Test system: HCV (1b) replicon, Huh-ET cells
Experiment: Cell-based luciferase reporter HCV (1b) RNA replication assay
Details: Hepatitis C virus, 96 h; HCV 1b replicon, luciferase, 4 days incubation; read-out: EC50_1b
Source text: Cell-Based Luciferase Reporter HCV (Ib) RNA Replication Assay Cell Culture
Replicon cell lines Huh-5.2 are derived from the Huh-7 hepatocarcinoma cell line are maintained in culture as generally described in Krieger, N; Lohmann, V; Bartenschlager, R. Enhancement of hepatitis C virus RNA replication by cell culture-adaptive mutations. J. Virol. 2001, 75, 4614-4624. The Huh-5.2 cells contain the highly cell culture-adapted replicon I389luc-ubi-neo/NS3-375.1 construct that carries, in addition to the neomycin gene, an integrated copy to the firefly luciferase gene (Krieger, N; Lohmann, V; Bartenschlager, R. Enhancement of hepatitis C virus RNA replication by cell culture-adaptive mutations. J. Virol. 2001, 75, 4614-4624). This cell line allows measurement of HCV RNA replication and translation by measuring luciferase activity. It has been previously shown that the luciferase activity tightly follows the replicon RNA level in these cells (Krieger, N; Lohmann, V; Bartenschlager, R. Enhancement of hepatitis C virus RNA replication by cell culture-adaptive mutations. J. Virol. 2001, 75, 4614-4624). The Huh-ET cell line has the same features as those mentioned for Huh-5.2 cell line, except that ET cells are more robust and contain an adaptative mutation in the HCV NS4B gene instead of NS5A. Both cell lines are maintained in cultures at a sub-confluent level (<85%) as the level of replicon RNA is highest in actively proliferating cells. The culture media used for cell passaging consist of DMEM (Gibco BRL Laboratories, Mississauga, ON, Canada) supplemented with 10% foetal bovine serum with 1% penicilin/streptomycin, 1% glutamine, 1% sodium pyruvate, 1% non-essential amino acids, and 180 μg/ml of G418 final concentration. Cells are incubated at 37° C., in an atmosphere of 5% CO2 and passaged twice a week to maintain sub-confluence.
Approximately 3000 viable Huh-ET cells (100 μl) are plated per well in a white opaque 96-well microtiter plate. The cell culture media used for the assay is the same as described above except that it contains no G418 and no phenol red. After an incubation period of 3-4 hours at 37° C. in a 5% CO2 incubator, compounds (100 μl) are added at various concentrations. Cells are then further incubated for 4 days at 37° C. in a 5% CO2 incubator. Thereafter, the culture media is removed and cells are lysed by the addition of 95 μL of the luciferase buffer (luciferin substrate in buffered detergent). Cell lysates are incubated at room temperature and protected from direct light for at least 10 minutes. Plates are read for luciferase counts using a luminometer (Wallac MicroBeta Trilux, Perkin Elmer™, MA, USA).
Curves are fitted to data points using nonlinear regression analysis, and IC50s are interpolated from the resulting curve using GraphPad Prism software, version 2.0 (GraphPad Software Inc., San Diego, Calif., USA).

Structure (SMILES) | EC50
COC(=O)N(C)C(C(=O)N1C[C@@H](C)C[C@H]1c1nc(-c2ccc(C#Cc3ccc4[nH]c([C@@H]5C[C@H](C)CN5C(=O)C(C(C)C)N(C)C(=O)OC)nc4c3)cc2)c[nH]1)C(C)C (stereo in doubt) [Compound 10, Methyl N-[(1S)-1-[(2S,4S)-2-[4-[4-[2-[2-[(2S,4S)-1-[(2S)-2-[methoxycarbonyl-(methyl)amino]-3-methyl-butanoyl]-4-methyl-pyrrolidin-2-yl]-1H-benzimidazol-5-yl]ethynyl]phenyl]-1H-imidazol-2-yl]-4-methyl-pyrrolidine-1-carbonyl]-2-methyl-propyl]-N-methyl-carbamate] | ≤ 5 nM
O=C(OCc1ccccc1)N1CCCC1c1ncc(-c2ccc(C#Cc3ccc4[nH]c(C5CCCCN5C(=O)OCc5ccccc5)nc4c3)cc2)[nH]1 (centres unmarked) [Compound 1] | 5 to 5000 nM
O=C(OCc1ccccc1)N1CCC[C@H]1c1ncc(-c2ccc(C#Cc3ccc4[nH]c([C@@H]5CCCN5C(=O)OCc5ccccc5)nc4c3)cc2)[nH]1 [Compound 2] | 5 to 5000 nM
COC(=O)N[C@H](C(=O)N1CCC[C@H]1c1nc(-c2ccc(-c3ccc4[nH]c([C@@H]5CCCN5C(=O)[C@@H](NC(=O)OC)C(C)C)nc4c3)cc2)c[nH]1)C(C)C [Compound 3, Methyl N-[(1S)-1-[(2S)-2-[4-[4-[2-[(2S)-1-[(2S)-2-(methoxycarbonylamino)-3-methyl-butanoyl]pyrrolidin-2-yl]-1H-benzimidazol-5-yl]phenyl]-1H-imidazol-2-yl]pyrrolidine-1-carbonyl]-2-methyl-propyl]carbamate] | ≤ 5 nM
COC(=O)N(C)[C@H](C(=O)N1C[C@@H](C)C[C@H]1c1ncc(-c2ccc(-c3ccc(-c4ccc5[nH]c([C@@H]6C[C@H](C)CN6C(=O)[C@H](C(C)C)N(C)C(=O)OC)nc5c4)cc3)cc2)[nH]1)C(C)C [Compound 6, Methyl N-[(1S)-1-[(2S,4S)-2-[4-[4-[4-[2-[(2S,4S)-1-[(2S)-2-[methoxycarbonyl(methyl)amino]-3-methyl-butanoyl]-4-methyl-pyrrolidin-2-yl]-1H-benzimidazol-5-yl]phenyl]phenyl]-1H-imidazol-2-yl]-4-methyl-pyrrolidine-1-carbonyl]-2-methyl-propyl]-N-methyl-carbamate] | ≤ 5 nM
COC(=O)N[C@H](C(=O)N1C[C@@H](C)C[C@H]1c1ncc(-c2ccc(-c3ccc(-c4ccc5[nH]c([C@@H]6C[C@H](C)CN6C(=O)[C@H](C(C)C)N(C)C(=O)OC)nc5c4)cc3)cc2)[nH]1)C(C)C [Compound 7, ((S)-1-{(2S,4S)-2-[5-(4′-{2-[(2S,4S)-1-((S)-2-Methoxycarbonylamino-3-methyl-butyryl)-4-methyl-pyrrolidin-2-yl]-1H-imidazol-4-yl}-biphenyl-4-yl)-1H-benzoimidazol-2-yl]-4-methyl-pyrrolidine-1-carbonyl}-2-methyl-propyl)-methyl-carbamic acid methyl ester] | ≤ 5 nM
COC(=O)N[C@H](C(=O)N1C[C@@H](C)C[C@H]1c1nc2cc(-c3ccc(-c4ccc(-c5cnc([C@@H]6C[C@H](C)CN6C(=O)[C@H](C(C)C)N(C)C(=O)OC)[nH]5)cc4)cc3)ccc2[nH]1)C(C)C [Compound 8, Methyl ((S)-1-((2S,4S)-2-(4-(4′-(2-((2S,4S)-1-((S)-2-((methoxycarbonyl)amino)-3-methylbutanoyl)-4-methylpyrrolidin-2-yl)-3H-benzo[d]imidazol-6-yl)-[1,1′-biphenyl]-4-yl)-1H-imidazol-2-yl)-4-methylpyrrolidin-1-yl)-3-methyl-1-oxobutan-2-yl)(methyl)carbamate] | ≤ 5 nM
COC(=O)N[C@H](C(=O)N1C[C@@H](C)C[C@H]1c1nc(-c2ccc(C#Cc3ccc4[nH]c([C@@H]5C[C@H](C)CN5C(=O)[C@@H](NC(=O)OC)C(C)C)nc4c3)cc2)c[nH]1)C(C)C [Compound 9, Methyl N-[(1S)-1-[(2S,4S)-2-[4-[4-[2-[2-[(2S,4S)-1-[(2S)-2-(methoxycarbonylamino)-3-methyl-butanoyl]-4-methyl-pyrrolidin-2-yl]-1H-benzimidazol-5-yl]ethynyl]phenyl]-1H-imidazol-2-yl]-4-methyl-pyrrolidine-1-carbonyl]-2-methyl-propyl]carbamate] | ≤ 5 nM
COC(=O)N[C@H](C(=O)N1C[C@@H](C)C[C@H]1c1nc(C#Cc2ccc(-c3ccc4[nH]c([C@@H]5C[C@H](C)CN5C(=O)[C@@H](NC(=O)OC)C(C)C)nc4c3)cc2)c[nH]1)C(C)C [Compound 12, Methyl N-[(1S)-1-[(2S,4S)-2-[4-[2-[4-[2-[(2S,4S)-1-[(2S)-2-(methoxycarbonylamino)-3-methyl-butanoyl]-4-methyl-pyrrolidin-2-yl]-1H-benzimidazol-5-yl]phenyl]ethynyl]-1H-imidazol-2-yl]-4-methyl-pyrrolidine-1-carbonyl]-2-methyl-propyl]carbamate] | ≤ 5 nM
COC(=O)N[C@H](C(=O)N1C[C@@H](C)C[C@H]1c1ncc(-c2csc(-c3ccc(-c4ccc5[nH]c([C@@H]6C[C@H](C)CN6C(=O)[C@@H](NC(=O)OC)C(C)C)nc5c4)cc3)c2)[nH]1)C(C)C [Compound 14] | ≤ 5 nM
COC(=O)N[C@H](C(=O)N1C[C@@H](C)C[C@H]1c1nc(C)c(-c2ccc(-c3ccc(-c4ccc5[nH]c([C@@H]6C[C@H](C)CN6C(=O)[C@@H](NC(=O)OC)C(C)C)nc5c4)cc3)cc2)[nH]1)C(C)C [Compound 15, Methyl N-[(1S)-1-[(2S,4S)-2-[5-[4-[4-[2-[(2S,4S)-1-[(2S)-2-(methoxycarbonylamino)-3-methyl-butanoyl]-4-methyl-pyrrolidin-2-yl]-1H-benzimidazol-5-yl]phenyl]phenyl]-4-methyl-1H-imidazol-2-yl]-4-methyl-pyrrolidine-1-carbonyl]-2-methyl-propyl]carbamate] | ≤ 5 nM
COC(=O)N[C@H](C(=O)N1C[C@@H](C)C[C@H]1c1nc(-c2cc3sc(-c4ccc5[nH]c([C@@H]6C[C@H](C)CN6C(=O)[C@@H](NC(=O)OC)C(C)C)nc5c4)cc3s2)c[nH]1)C(C)C [Compound 16, Methyl N-[(1S)-1-[(2S,4S)-2-[4-[5-[2-[(2S,4S)-1-[(2S)-2-(methoxycarbonylamino)-3-methyl-butanoyl]-4-methyl-pyrrolidin-2-yl]-1H-benzimidazol-5-yl]thieno[3,2-b]thiophen-2-yl]-1H-imidazol-2-yl]-4-methyl-pyrrolidine-1-carbonyl]-2-methyl-propyl]carbamate] | ≤ 5 nM
CC[C@H]1C[C@@H](c2nc(-c3ccc(-c4ccc(-c5ccc6[nH]c([C@@H]7C[C@H](CC)CN7C(=O)[C@@H](NC(=O)OC)C(C)C)nc6c5)cc4)cc3)c[nH]2)N(C(=O)[C@@H](NC(=O)OC)C(C)C)C1 [Compound 17] | ≤ 5 nM
COC(=O)N[C@H](C(=O)N1C[C@@H](C)C[C@H]1c1nc(-c2cc3sc(-c4ccc5[nH]c([C@@H]6C[C@H](C)CN6C(=O)[C@@H](NC(=O)OC)C(C)C)nc5c4)cc3s2)c(C)[nH]1)C(C)C [Compound 19] | ≤ 5 nM
COC(=O)N[C@H](C(=O)N1C[C@@H](C)C[C@H]1c1nc(-c2ccc3cc(-c4ccc5[nH]c([C@@H]6C[C@H](C)CN6C(=O)[C@@H](NC(=O)OC)C(C)C)nc5c4)ccc3c2)c[nH]1)C(C)C [Compound 20] | ≤ 5 nM
COC(=O)N[C@H](C(=O)N1CC(C)(C)C[C@H]1c1nc(-c2ccc(-c3ccc(-c4ccc5[nH]c([C@@H]6CC(C)(C)CN6C(=O)[C@@H](NC(=O)OC)C(C)C)nc5c4)cc3)cc2)c[nH]1)C(C)C [Compound 23] | ≤ 5 nM
COC(=O)N[C@H](C(=O)N1C[C@@H](C)C[C@H]1c1ncc(-c2ccc(-c3cc4sc(-c5ccc6nc([C@@H]7C[C@H](C)CN7C(=O)[C@@H](NC(=O)OC)C(C)C)[nH]c6c5)cc4s3)cc2)[nH]1)C(C)C [Compound 25] | ≤ 5 nM
COC(=O)N[C@H](C(=O)N1C[C@@H](C)C[C@H]1c1nc(-c2ccc(-c3ccc4nc([C@@H]5C[C@H](C)CN5C(=O)[C@@H](NC(=O)OC)C(C)C)[nH]c4c3)cc2)c(-c2cc3sccc3s2)[nH]1)C(C)C [Compound 26] | ≤ 5 nM
COC(=O)N[C@H](C(=O)N1C[C@@H](C)C[C@H]1c1nc(-c2ccc(-c3ccc(-c4ccc5[nH]c([C@@H]6C[C@H](C)CN6C(=O)[C@@H](NC(=O)OC)C(C)C)nc5c4)s3)cc2)c[nH]1)C(C)C [Compound 27] | ≤ 5 nM
COC(=O)N[C@H](C(=O)N1C[C@@H](C)C[C@H]1c1nc(-c2ccc(-c3ccc(-c4cc(C)c5[nH]c([C@@H]6C[C@H](C)CN6C(=O)[C@@H](NC(=O)OC)C(C)C)nc5c4)cc3)cc2)c[nH]1)C(C)C [Compound 28] | ≤ 5 nM

From US8779156B2, “Analogues for the treatment or prevention of flavivirus infections” (Vertex Pharmaceuticals Incorporated, priority 2010, dated 2014)
